The values that follow come from patent US9981963B2, “3-(1H-pyrazol-4-yl)-1H-pyrrolo[2,3-c]pyridine derivatives as NIK inhibitors” (Janssen Pharmaceutica NV, priority 2013, dated 2018).

The target in assay [1] is T1, Recombinant Human NF-kappaB-inducing Kinase (NIK/MAP3K14) (Homo sapiens (Human), UniProt Q99558). Description: Biological Assay A: inhibition of recombinant human NIK/MAP3K14 activity (MSD, MBP substrate). The note with it: 25 μM ATP, 10 nM NIK/MAP3K14, 1 h at 25° C.; averaged over all measurements on all batches; read-out: Biochemical (MSD MBP) IC50. As for the experimental part:
Inhibition of Recombinant Human NF-kappaB-inducing Kinase (NIK/MAP3K14) Activity
Assay buffer was 50 mM Tris pH 7.5 containing 1 mM EGTA (ethylene glycol tetraacetic acid), 1 mM DTT (dithiothreitol), 0.1 mM Na3VO4, 5 mM MgCl2, 0.01% Tween® 20. Assays were carried out in 384 well Mesoscale high binding plates which had been coated with myelin basic protein (MBP) and blocked with bovine serum albumin to prevent non-specific protein binding. All compounds tested were dissolved in dimethyl sulfoxide (DMSO) and further dilutions were made in assay buffer. Final DMSO concentration was 1% (v/v) in assays. Incubations consisted of compound (1% DMSO in control and blank wells), 25 μM Adenosine-5′-triphosphate (ATP), and 10 nM NIK/MAP3K14 substituting enzyme with buffer in the blank wells. Incubations were carried out for 1 h at 25° C. and were followed by washing and sequential incubation with rabbit anti-phospho-MBP and anti-rabbit Ig Sulfotag antibody before reading bound Sulfotag on a Mesoscale Discovery. Signal obtained in the wells containing blank samples was subtracted from all other wells and IC50's were determined by fitting a sigmoidal curve to % inhibition of control versus Log10 compound concentration.

In assay [2] the target is T1, Recombinant Human NF-kappaB-inducing Kinase (NIK/MAP3K14). Nature of the assay: Biological Assay A2: inhibition of auto-phosphorylation of recombinant human NIK/MAP3K14 (AlphaScreen). The assay is classed as biochemical. The note with it: 25 microM ATP, 0.2 nM GST-tagged NIK/MAP3K14, 1 h at 25° C., averaged values, read-out: Alpha-Screen IC50. On the procedure: Inhibition of Auto-phosphorylation of Recombinant Human NF-kappaB-inducing Kinase (NIK/MAP3K14) Activity (AlphaScreen®)
NIK/MAP3K14 auto-phosphorylation activity was measured using the AlphaScreen® (αscreen) format (Perkin Elmer). All compounds tested were dissolved in dimethyl sulfoxide (DMSO) and further dilutions were made in assay buffer. Final DMSO concentration was 1% (v/v) in assays. Assay buffer was 50 mM Tris pH 7.5 containing 1 mM EGTA (ethylene glycol tetraacetic acid), 1 mM DTT (dithiothreitol), 0.1 mM Na3VO4, 5 mM MgCl2, 0.01% Tween® 20. Assays were carried out in 384 well Alphaplates (Perkin Elmer). Incubations consisted of compound, 25 microM Adenosine-5′-triphosphate (ATP), and 0.2 nM NIK/MAP3K14. Incubations were initiated by addition of GST-tagged NIK/MAP3K14 enzyme, carried out for 1 h at 25° C. and terminated by addition of stop buffer containing anti-phospho-IKK Ser176/180 antibody. Protein A Acceptor and Glutathione-Donor beads were added before reading using an EnVision® Multilabel Plate Reader (Perkin Elmer). Signal obtained in the wells containing blank samples was subtracted from all other wells and IC50's were determined by fitting a sigmoidal curve to % inhibition of control versus Log10 compound concentration.

The subject of assay [3] is P-IKKα levels in L363 cells. Nature of the assay: Biological Assay B: effect of compounds on P-IKKα levels in L363 cells. The settings on record: Homo sapiens, L-363; L363 cells with BAFF, 2 hr treatment; averaged values; read-out: IKKα Cellular IC50. The assay is classed as cell-based. On the procedure: Effect of Compounds on P-IKKα Levels in L363 Cells
All compounds tested were dissolved in DMSO and further dilutions were made in culture medium. Final DMSO concentration was 1% (v/v) in cell assays. The human L363 cells (ATCC) were cultured in RPMI 1640 medium supplemented with GlutaMax and 10% fetal calf serum (PAA). Cells were routinely maintained at densities of 0.2×10^6 cells per ml-1×10^6 cells per ml at 37° C. in a humidified 5% CO2 atmosphere. Cells were passaged twice a week splitting back to obtain the low density. Cells were seeded in 96 well plates (Nunc 167008) at 2×10^6 per ml media in a volume of 75 μl per well plus 25 μl 1 μg/ml recombinant human B-cell activating factor (BAFF/BLyS/TNFSF13B). Seeded cells were incubated at 37° C. in a humidified 5% CO2 atmosphere for 24 hr. Drugs and/or solvents were added (20 μl) to a final volume of 120 μl. Following 2 hr treatment plates were removed from the incubator and cell lysis was achieved by the addition of 30 μl 5× lysis buffer followed by shaking on a plate shaker at 4° C. for 10 min. At the end of this incubation lysed cells were centrifuged at 800×g for 20 min at 4° C. and the lysate was assessed for P-IKKα levels by sandwich immuno-assay carried out in anti-rabbit antibody coated Mesoscale plates. Within an experiment, the results for each treatment were the mean of 2 replicate wells. For initial screening purposes, compounds were tested using an 8 point dilution curve (serial 1:3 dilutions). For each experiment, controls (containing MG132 and BAFF but no test drug) and a blank incubation (containing MG132 and BAFF and 10 μM ADS125117, a test concentration known to give full inhibition) were run in parallel. The blank incubation value was subtracted from all control and sample values. To determine the IC50 a sigmoidal curve was fitted to the plot of % inhibition of control P-IKKα levels versus Log10 compound concentration.

In assay [4] the test system is JJN-3 cells. Nature of the assay: Biological Assay C: antiproliferative activity on JJN-3 cells (CellTiter-Glo). The assay is classed as cell-based. The note with it: Homo sapiens, 72 hr of treatment, averaged values. As for the experimental part:
(§1) Determination of Antiproliferative Activity on LP-1, L-363 and JJN-3 Cells
(§2) All compounds tested were dissolved in DMSO and further dilutions were made in culture medium. Final DMSO concentration was 0.3% (v/v) in cell proliferation assays. Viability was assessed using CellTiter-Glo cell viability assay kit (Promega). The human LP-1, L-363 and JJN-3 cells (DSMZ) were cultured in RPMI 1640 medium supplemented with 2 mM L-glutamine, and 10% fetal calf serum (PAA). Cells were routinely kept as suspension cells at 37° C. in a humidified 5% CO2 atmosphere. Cells were passaged at a seeding density of 0.2×10^6/ml twice a week. Cells were seeded in black tissue culture treated 96-well plates (Perkin Elmer). Densities used for plating ranged from 2,000 to 6,000 cells per well in a total volume of 75 μl medium. After twenty four hours, drugs and/or solvents were added (25 μl) to a final volume of 100 μl. Following 72 hr of treatment plates were removed from the incubator and allowed to equilibrate to room temperature for approx 10 min. 100 μl CellTiter-Glo reagent was added to each well that was then covered (Perkin Elmer Topseal) and shaken on plate shaker for 10 min. Luminescence was measured on a HTS Topcount (Perkin Elmer). Within an experiment, the results for each treatment were the mean of 2 replicate wells. For initial screening purposes, compounds were tested using a 9 point dilution curve (serial 1:3 dilutions). For each experiment, controls (containing no drug) and a blank incubation (containing cells read at the time of compound addition) were run in parallel. The blank value was subtracted from all control and sample values. For each sample, the mean value for cell growth (in relative light units) was expressed as a percentage of the mean value for cell growth of the control.

Assay [5] has as its system L-363 cells. Nature of the assay: Biological Assay C: antiproliferative activity on L-363 cells (CellTiter-Glo). The assay is classed as cell-based. The note with it: Homo sapiens, 72 hr of treatment, averaged values. On the procedure:
as §1, §2

Assay [6] concerns LP-1 cells. Description: Biological Assay C: antiproliferative activity on LP-1 cells (CellTiter-Glo). The assay is classed as cell-based. The settings on record: Homo sapiens, 72 hr of treatment, averaged values. On the procedure:
as §1, §2
In general terms: In ATP-based viability assays light output follows the ATP content of the culture.

pEC50, pIC50: −log10 of the molar value.

T1 sequence (Q99558 whole entry): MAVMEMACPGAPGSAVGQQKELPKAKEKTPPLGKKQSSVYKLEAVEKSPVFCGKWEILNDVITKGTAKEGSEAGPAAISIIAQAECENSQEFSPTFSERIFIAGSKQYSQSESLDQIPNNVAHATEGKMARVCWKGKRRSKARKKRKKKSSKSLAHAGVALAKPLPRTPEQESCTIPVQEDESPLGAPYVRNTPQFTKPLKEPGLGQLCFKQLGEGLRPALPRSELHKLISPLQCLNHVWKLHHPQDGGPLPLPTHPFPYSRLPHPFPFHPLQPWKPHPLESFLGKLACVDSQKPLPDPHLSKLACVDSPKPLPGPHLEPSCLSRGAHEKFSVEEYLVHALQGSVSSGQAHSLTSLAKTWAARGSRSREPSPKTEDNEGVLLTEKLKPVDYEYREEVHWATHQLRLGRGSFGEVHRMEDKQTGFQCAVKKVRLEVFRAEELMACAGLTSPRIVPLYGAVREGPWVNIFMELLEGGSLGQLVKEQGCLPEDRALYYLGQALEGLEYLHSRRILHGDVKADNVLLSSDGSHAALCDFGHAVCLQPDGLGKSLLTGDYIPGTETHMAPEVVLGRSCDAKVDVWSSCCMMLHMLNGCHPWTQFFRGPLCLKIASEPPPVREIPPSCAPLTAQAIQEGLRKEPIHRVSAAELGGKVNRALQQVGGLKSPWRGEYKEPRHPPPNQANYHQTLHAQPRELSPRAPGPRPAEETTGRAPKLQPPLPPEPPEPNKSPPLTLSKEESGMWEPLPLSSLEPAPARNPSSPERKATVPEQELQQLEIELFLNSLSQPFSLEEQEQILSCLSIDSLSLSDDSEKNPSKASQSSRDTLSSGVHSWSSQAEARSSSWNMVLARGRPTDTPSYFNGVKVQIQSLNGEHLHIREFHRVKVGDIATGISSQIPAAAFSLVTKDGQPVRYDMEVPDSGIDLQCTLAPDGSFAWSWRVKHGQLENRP

As to `CC(C)(O)C#Cc1cc2c(-c3cn[nH]c3)cn(CC3CCOC3)c2cn1` (stereo not drawn) [Compound 2], the pIC50 in assay [1] was 6.89; in assay [2], 7.08; in assay [3], 6.08. The figures for the pEC50 in assay [4], in assay [5] and in assay [6] were 5.40, 5.36 and 4.67, respectively.

On to `CCn1cc(-c2c[nH]nc2N)c2cc(C#CC(C)(C)O)ncc21` [Compound 3], for which the pIC50 in assay [1] is 7.24; in assay [2], 7.55; in assay [3], 6.76. For the same molecule, the figures for the pEC50 in assay [4], in assay [5] and in assay [6] were 5.62, 5.39 and 5.14, respectively.

Regarding `Cn1cc(-c2cn[nH]c2)c2cc(C#CC(C)(C)O)ncc21` [Compound 4], the pIC50 in assay [1] was 7.55; in assay [2] it was 7.96; in assay [3], 6.68. Moreover, the pEC50 in assay [4] is 5.94; in assay [5], 5.99; in assay [6] it was 5.33.

Consider `CC(C)(O)C#Cc1cc2c(-c3cn[nH]c3)cn(CCCO)c2cn1` [Compound 5], for which the pIC50 in assay [1] was 7.80; in assay [2], 7.85; in assay [3] it was 7.15. Besides, the values for the pEC50 in assay [4], in assay [5] and in assay [6] were 5.92, 6.10 and 4.73, respectively.

For `OC1(C#Cc2cc3c(-c4cn[nH]c4)c[nH]c3cn2)CCCC1` [Compound 6], the values for the pIC50 in assay [1], in assay [2] and in assay [3] were 7.72, 7.59 and 5.95, respectively. For the same molecule, the figures for the pEC50 in assay [4], in assay [5] and in assay [6] were 5.16, 4.97 and below 4.52, respectively.

Consider `CC(O)(C#Cc1cc2c(-c3cn[nH]c3)c[nH]c2cn1)c1nccs1` (stereo not drawn) [Compound 7], for which the pIC50 in assay [1] was 8.05; in assay [2], 8.05; in assay [3], 6.05. Moreover, the pEC50 in assay [4] was below 4.52; in assay [5] it was 5.27; in assay [6], below 4.52.

Regarding `Cn1cc(-c2cn[nH]c2)c2cc(C#CC3(O)CCCC3)ncc21` [Compound 8], the pIC50 is 7.68 in assay [1], 8.15 in assay [2] and 6.39 in assay [3]. Also, the pEC50 is 5.48 in assay [4], 5.23 in assay [5] and 5.02 in assay [6].

Consider `CCn1cc(-c2cn[nH]c2)c2cc(C#CC3(O)CCCC3)ncc21` [Compound 10], for which the values for the pIC50 in assay [1], in assay [2] and in assay [3] were 8.05, 7.64 and 6.95, respectively. Moreover, the pEC50 in assay [4] was 5.92; in assay [5], 5.50; in assay [6], 5.29.

As to `CC(C)n1cc(-c2cn[nH]c2)c2cc(C#CC(C)(C)O)ncc21` [Compound 11], the pIC50 is 8.22 in assay [1], 7.68 in assay [2] and 7.70 in assay [3]. Besides, the pEC50 in assay [4] was 6.59; in assay [5], 6.55; in assay [6] it was 6.04.

For the molecule `CC(C)(O)C#Cc1cc2c(-c3cn[nH]c3)cn(CCO)c2cn1` [Compound 12], the pIC50 in assay [1] is 7.33; in assay [2], 7.66; in assay [3] it was 6.73. Further, the negative logarithm of the EC50 (pEC50) in assay [4] was 5.82; in assay [5], 5.61; in assay [6] it was 5.07.

For `OCCn1cc(-c2cn[nH]c2)c2cc(C#CC3(O)CCCC3)ncc21` [Compound 13], the pIC50 in assay [1] was 7.85; in assay [2], 7.77; in assay [3] it was 6.62. Further, the pEC50 in assay [4] was 4.62; in assay [5] it was 4.96; in assay [6] it was below 4.52.

Consider `CC(C)(O)C#Cc1cc2c(-c3cn[nH]c3)cn(CC(C)(C)O)c2cn1` [Compound 14], for which the values for the pIC50 in assay [1], in assay [2] and in assay [3] were 7.74, 6.97 and 6.88, respectively. Moreover, the pEC50 in assay [4] was 5.85; in assay [5] it was 5.88; in assay [6], 4.92.

As for `CC(C)(O)Cn1cc(-c2cn[nH]c2)c2cc(C#CC(C)(O)c3nccs3)ncc21` (stereo not drawn) [Compound 15], the pIC50 in assay [1] was 8.00; in assay [2] it was 7.37; in assay [3], 7.33. Moreover, the values for the pEC50 in assay [4], in assay [5] and in assay [6] were 5.41, below 4.52 and below 4.52, respectively.

`COCCn1cc(-c2cn[nH]c2)c2cc(C#CC(C)(C)O)ncc21` [Compound 16]: the figures for the pIC50 in assay [1], in assay [2] and in assay [3] were 7.04, 7.00 and 6.28, respectively. Besides, the figures for the pEC50 in assay [4], in assay [5] and in assay [6] were 5.39, 5.50 and 4.69, respectively.

Take `CC(C)(O)C#Cc1cc2c(-c3cn[nH]c3)cn(CC3COC3)c2cn1` [Compound 17]: the results for the pIC50 in assay [1], in assay [2] and in assay [3] were 7.06, 7.16 and 6.38, respectively. The pEC50 is 5.23 in assay [4], 4.92 in assay [5] and below 4.52 in assay [6].

Take `COCCCn1cc(-c2cn[nH]c2)c2cc(C#CC(C)(C)O)ncc21` [Compound 18]: the pIC50 in assay [1] was 7.35; in assay [2], 7.39; in assay [3], 6.78. Also, the pEC50 in assay [4] is 5.73; in assay [5], 5.60; in assay [6], 5.17.

Turning to `CN1CCC(n2cc(-c3cn[nH]c3)c3cc(C#CC(C)(C)O)ncc32)CC1` [Compound 19], the pIC50 in assay [1] is 7.19; in assay [2], 7.01; in assay [3], 6.22. The pEC50 in assay [4] is 6.15; in assay [5] it was 6.24; in assay [6], 4.93.

The pIC50 is the negative decadic logarithm of the IC50, by convention in mol/L. For orientation: pEC50 means −log10 of the EC50, conventionally taken in molar units. High values mean a small EC50, low ones a large EC50.
